From patent US20230085307A1, “PYRIDAZINONE COMPOUND AND HERBICIDE” (NISSAN CHEMICAL CORPORATION, priority 2019, published 2023)

What was measured:
late watergrass = test: Test Example 2: herbicidal activity, application during weed generation under submerged conditions (Table 17, symbol A); format: in vivo, late watergrass (Echinochloa oryzicola); conditions: AAH 320 g/ha; application during weed generation, submerged conditions
How it was run: (§1)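 Effect on each weed is rated three weeks post-treatment, using the same scoring criteria as the preceding test. Plants grow from mixed-sown seed in flooded alluvial soil (4 cm water) at 25° C. to 30° C., and are treated at one to two leaves with diluted emulsion dropped onto the water.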

Japanese bulrush = test: Test Example 2: herbicidal activity, application during weed generation under submerged conditions (Table 17, symbol B); format: in vivo, Japanese bulrush (Schoenoplectus juncoides); conditions: AAH 320 g/ha; application during weed generation, submerged conditions
How it was run: as §1

oval-leafed pondweed = test: Test Example 2: herbicidal activity, application during weed generation under submerged conditions (Table 17, symbol C); format: in vivo, oval-leafed pondweed (Monochoria vaginalis); conditions: AAH 320 g/ha; application during weed generation, submerged conditions
How it was run: as §1

barnyard grass [1] = test: Test Example 3: herbicidal effect by foliage application, Wagner pot (Table 18, symbol H); format: in vivo, barnyard grass (Echinochloa crus-galli); conditions: 320 g/ha
How it was run: (§2)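 Plants were sown in alluvial soil held under 0.1–0.5 cm standing water and grown 14 days in a greenhouse at 25–30 °C. An emulsifiable formulation, water-diluted to the set dose, was then sprayed onto the foliage, and effects were scored three weeks later using previously defined criteria.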

Chinese sprangletop = test: Test Example 3: herbicidal effect by foliage application, Wagner pot (Table 18, symbol D); format: in vivo, chinese sprangletop (Leptochloa chinensis); conditions: 320 g/ha
How it was run: as §2

rice flat sedge = test: Test Example 3: herbicidal effect by foliage application, Wagner pot (Table 18, symbol E); format: in vivo, rice flat sedge (Cyperus iria); conditions: 320 g/ha
How it was run: as §2

southern crabgrass [2] = test: Test Example 4: herbicidal effect by soil treatment (Table 19, symbol F); format: in vivo, southern crabgrass (Digitaria ciliaris)
How it was run: (§3)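 Step 1: sow seeds in sterilized diluvial soil, cover ~1.5 cm. Step 2: spray diluted emulsion onto soil surface at predetermined rate. Step 3: greenhouse, 25–30° C, three weeks. Step 4: grade effect on each plant by earlier criteria.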

green foxtail [3] = test: Test Example 4: herbicidal effect by soil treatment (Table 19, symbol G); format: in vivo, green foxtail (Setaria viridis)
How it was run: as §3

barnyard grass [4] = test: Test Example 4: herbicidal effect by soil treatment (Table 19, symbol H); format: in vivo, barnyard grass (Echinochloa crus-galli)
How it was run: as §3

wild oat [5] = test: Test Example 4: herbicidal effect by soil treatment (Table 19, symbol I); format: in vivo, wild oat (Avena fatua)
How it was run: as §3

blackgrass [6] = test: Test Example 4: herbicidal effect by soil treatment (Table 19, symbol J); format: in vivo, blackgrass (Alopecurus myosuroides)
How it was run: as §3

Italian ryegrass [7] = test: Test Example 4: herbicidal effect by soil treatment (Table 19, symbol K); format: in vivo, Italian ryegrass (Lolium multiflorum)
How it was run: as §3

windgrass [8] = test: Test Example 4: herbicidal effect by soil treatment (Table 19, symbol L); format: in vivo, windgrass (Apera spica-venti)
How it was run: as §3

velvetleaf [9] = test: Test Example 4: herbicidal effect by soil treatment (Table 19, symbol M); format: in vivo, velvetleaf (Abutilon theophrasti)
How it was run: as §3

redroot pigweed [10] = test: Test Example 4: herbicidal effect by soil treatment (Table 19, symbol N); format: in vivo, redroot pigweed (Amaranthus retroflexus)
How it was run: as §3

lambsquarters [11] = test: Test Example 4: herbicidal effect by soil treatment (Table 19, symbol O); format: in vivo, lambsquarters (Chenopodium album)
How it was run: as §3

chickweed [12] = test: Test Example 4: herbicidal effect by soil treatment (Table 19, symbol P); format: in vivo, common chickweed (Stellaria media)
How it was run: as §3

persian speedwell [13] = test: Test Example 4: herbicidal effect by soil treatment (Table 19, symbol R); format: in vivo, Persian speedwell (Veronica persica)
How it was run: as §3

southern crabgrass [14] = test: Test Example 5: herbicidal effect by foliage application, plastic box (Table 20, symbol F); format: in vivo, southern crabgrass (Digitaria ciliaris); conditions: foliage application
How it was run: (§4)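 Foliar spray test: emulsion formulation diluted in water to a set application rate, sprayed onto 14-day-old plants raised in diluvial soil at 25° C to 30° C under glass. Both herbicidal effect and crop effect rated visually three weeks later.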

green foxtail [15] = test: Test Example 5: herbicidal effect by foliage application, plastic box (Table 20, symbol G); format: in vivo, green foxtail (Setaria viridis); conditions: foliage application
How it was run: as §4

barnyard grass [16] = test: Test Example 5: herbicidal effect by foliage application, plastic box (Table 20, symbol H); format: in vivo, barnyard grass (Echinochloa crus-galli); conditions: foliage application
How it was run: as §4

wild oat [17] = test: Test Example 5: herbicidal effect by foliage application, plastic box (Table 20, symbol I); format: in vivo, wild oat (Avena fatua); conditions: foliage application
How it was run: as §4

blackgrass [18] = test: Test Example 5: herbicidal effect by foliage application, plastic box (Table 20, symbol J); format: in vivo, blackgrass (Alopecurus myosuroides); conditions: foliage application
How it was run: as §4

Italian ryegrass [19] = test: Test Example 5: herbicidal effect by foliage application, plastic box (Table 20, symbol K); format: in vivo, Italian ryegrass (Lolium multiflorum); conditions: foliage application
How it was run: as §4

windgrass [20] = test: Test Example 5: herbicidal effect by foliage application, plastic box (Table 20, symbol L); format: in vivo, windgrass (Apera spica-venti); conditions: foliage application
How it was run: as §4

velvetleaf [21] = test: Test Example 5: herbicidal effect by foliage application, plastic box (Table 20, symbol M); format: in vivo, velvetleaf (Abutilon theophrasti); conditions: foliage application
How it was run: as §4

redroot pigweed [22] = test: Test Example 5: herbicidal effect by foliage application, plastic box (Table 20, symbol N); format: in vivo, redroot pigweed (Amaranthus retroflexus); conditions: foliage application
How it was run: as §4

lambsquarters [23] = test: Test Example 5: herbicidal effect by foliage application, plastic box (Table 20, symbol O); format: in vivo, lambsquarters (Chenopodium album); conditions: foliage application
How it was run: as §4

chickweed [24] = test: Test Example 5: herbicidal effect by foliage application, plastic box (Table 20, symbol P); format: in vivo, common chickweed (Stellaria media); conditions: foliage application
How it was run: as §4

persian speedwell [25] = test: Test Example 5: herbicidal effect by foliage application, plastic box (Table 20, symbol R); format: in vivo, Persian speedwell (Veronica persica); conditions: foliage application
How it was run: as §4

[26] = AAH 320 g/ha, three weeks after application
[27] = 320 g/ha, evaluated three weeks after application

Cc1nn(C)c(=O)c(-c2c(-c3ccc(OCc4cnc(Cl)s4)cc3)sc3ccccc23)c1O [1-144]
herbicidal effect rating, A: late watergrass (late watergrass): 2 (Herbicidal rate of 20% or more and less than 40%) | herbicidal effect rating, B: Japanese bulrush (Japanese bulrush): 0 (Herbicidal rate of 5% or less (almost no effect)) | herbicidal effect rating, C: oval-leafed pondweed (oval-leafed pondweed): 0 (Herbicidal rate of 5% or less (almost no effect)) | herbicidal effect on H (barnyard grass), rating 0-5 (barnyard grass [1]): 5 (Herbicidal rate of 90% or more (almost completely withered)) | herbicidal effect on D (Chinese sprangletop), rating 0-5 (Chinese sprangletop): 3 (Herbicidal rate of 40% or more and less than 70%) | herbicidal effect on E (rice flat sedge), rating 0-5 (rice flat sedge): 5 (Herbicidal rate of 90% or more (almost completely withered)) | F: southern crabgrass, herbicidal effect rating (southern crabgrass [2]; AAH 320 g/ha): 0 (Herbicidal rate of 5% or less (almost no effect)) | G: green foxtail, herbicidal effect rating (green foxtail [3]; AAH 320 g/ha): 0 (Herbicidal rate of 5% or less (almost no effect)) | H: barnyard grass, herbicidal effect rating (barnyard grass [4]; AAH 320 g/ha): 0 (Herbicidal rate of 5% or less (almost no effect)) | I: wild oat, herbicidal effect rating (wild oat [5]; AAH 320 g/ha): 0 (Herbicidal rate of 5% or less (almost no effect)) | J: blackgrass, herbicidal effect rating (blackgrass [6]; AAH 320 g/ha): 1 (Herbicidal rate of 5% or more and less than 20%) | K: Italian ryegrass, herbicidal effect rating (Italian ryegrass [7]; AAH 320 g/ha): 3 (Herbicidal rate of 40% or more and less than 70%) | L: windgrass, herbicidal effect rating (windgrass [8]; AAH 320 g/ha): 0 (Herbicidal rate of 5% or less (almost no effect)) | M: velvetleaf, herbicidal effect rating (velvetleaf [9]; AAH 320 g/ha): 0 (Herbicidal rate of 5% or less (almost no effect)) | N: redroot pigweed, herbicidal effect rating (redroot pigweed [10]; AAH 320 g/ha): 0 (Herbicidal rate of 5% or less (almost no effect)) | O: lambsquarters, herbicidal effect rating (lambsquarters [11]; AAH 320 g/ha): 0 (Herbicidal rate of 5% or less (almost no effect)) | P: chickweed, herbicidal effect rating (chickweed [12]; AAH 320 g/ha): 3 (Herbicidal rate of 40% or more and less than 70%) | R: persian speedwell, herbicidal effect rating (persian speedwell [13]; AAH 320 g/ha): 3 (Herbicidal rate of 40% or more and less than 70%) | F: southern crabgrass, herbicidal effect (southern crabgrass [14]; [26]): 5 (Herbicidal rate of 90% or more (almost completely withered)) | G: green foxtail, herbicidal effect (green foxtail [15]; [26]): 4 (Herbicidal rate of 70% or more and less than 90%) | H: barnyard grass, herbicidal effect (barnyard grass [16]; [26]): 5 (Herbicidal rate of 90% or more (almost completely withered)) | I: wild oat, herbicidal effect (wild oat [17]; [26]): 0 (Herbicidal rate of 5% or less (almost no effect)) | J: blackgrass, herbicidal effect (blackgrass [18]; [26]): 5 (Herbicidal rate of 90% or more (almost completely withered)) | K: Italian ryegrass, herbicidal effect (Italian ryegrass [19]; [26]): 4 (Herbicidal rate of 70% or more and less than 90%) | L: windgrass, herbicidal effect (windgrass [20]; [26]): 5 (Herbicidal rate of 90% or more (almost completely withered)) | M: velvetleaf, herbicidal effect (velvetleaf [21]; [26]): 2 (Herbicidal rate of 20% or more and less than 40%) | N: redroot pigweed, herbicidal effect (redroot pigweed [22]; [26]): 3 (Herbicidal rate of 40% or more and less than 70%) | O: lambsquarters, herbicidal effect (lambsquarters [23]; [26]): 1 (Herbicidal rate of 5% or more and less than 20%) | P: chickweed, herbicidal effect (chickweed [24]; [26]): 5 (Herbicidal rate of 90% or more (almost completely withered)) | R: persian speedwell, herbicidal effect (persian speedwell [25]; [26]): 5 (Herbicidal rate of 90% or more (almost completely withered))

CC(=O)COc1ccc(-c2sc3ccc(F)cc3c2-c2c(O)c(C)nn(C)c2=O)cc1 [2-068]
herbicidal effect rating, A: late watergrass (late watergrass): 2 (Herbicidal rate of 20% or more and less than 40%) | herbicidal effect rating, B: Japanese bulrush (Japanese bulrush): 3 (Herbicidal rate of 40% or more and less than 70%) | herbicidal effect rating, C: oval-leafed pondweed (oval-leafed pondweed): 3 (Herbicidal rate of 40% or more and less than 70%) | herbicidal effect on H (barnyard grass), rating 0-5 (barnyard grass [1]): 5 (Herbicidal rate of 90% or more (almost completely withered)) | herbicidal effect on D (Chinese sprangletop), rating 0-5 (Chinese sprangletop): 4 (Herbicidal rate of 70% or more and less than 90%) | herbicidal effect on E (rice flat sedge), rating 0-5 (rice flat sedge): 5 (Herbicidal rate of 90% or more (almost completely withered)) | herbicidal effect rating, F: southern crabgrass (southern crabgrass [2]; 320 g/ha): 1 (Herbicidal rate of 5% or more and less than 20%) | herbicidal effect rating, G: green foxtail (green foxtail [3]; 320 g/ha): 4 (Herbicidal rate of 70% or more and less than 90%) | herbicidal effect rating, H: barnyard grass (barnyard grass [4]; 320 g/ha): 3 (Herbicidal rate of 40% or more and less than 70%) | herbicidal effect rating, I: wild oat (wild oat [5]; 320 g/ha): 0 (Herbicidal rate of 5% or less (almost no effect)) | herbicidal effect rating, J: blackgrass (blackgrass [6]; 320 g/ha): 0 (Herbicidal rate of 5% or less (almost no effect)) | herbicidal effect rating, K: Italian ryegrass (Italian ryegrass [7]; 320 g/ha): 0 (Herbicidal rate of 5% or less (almost no effect)) | herbicidal effect rating, L: windgrass (windgrass [8]; 320 g/ha): 0 (Herbicidal rate of 5% or less (almost no effect)) | herbicidal effect rating, M: velvetleaf (velvetleaf [9]; 320 g/ha): 5 (Herbicidal rate of 90% or more (almost completely withered)) | herbicidal effect rating, N: redroot pigweed (redroot pigweed [10]; 320 g/ha): 5 (Herbicidal rate of 90% or more (almost completely withered)) | herbicidal effect rating, O: lambsquarters (lambsquarters [11]; 320 g/ha): 4 (Herbicidal rate of 70% or more and less than 90%) | herbicidal effect rating, P: chickweed (chickweed [12]; 320 g/ha): 0 (Herbicidal rate of 5% or less (almost no effect)) | herbicidal effect rating, R: persian speedwell (persian speedwell [13]; 320 g/ha): 4 (Herbicidal rate of 70% or more and less than 90%) | herbicidal effect on F: southern crabgrass (southern crabgrass [14]; [27]): 5 (Herbicidal rate of 90% or more (almost completely withered)) | herbicidal effect on G: green foxtail (green foxtail [15]; [27]): 5 (Herbicidal rate of 90% or more (almost completely withered)) | herbicidal effect on H: barnyard grass (barnyard grass [16]; [27]): 5 (Herbicidal rate of 90% or more (almost completely withered)) | herbicidal effect on I: wild oat (wild oat [17]; [27]): 4 (Herbicidal rate of 70% or more and less than 90%) | herbicidal effect on J: blackgrass (blackgrass [18]; [27]): 4 (Herbicidal rate of 70% or more and less than 90%) | herbicidal effect on K: Italian ryegrass (Italian ryegrass [19]; [27]): 3 (Herbicidal rate of 40% or more and less than 70%) | herbicidal effect on L: windgrass (windgrass [20]; [27]): 5 (Herbicidal rate of 90% or more (almost completely withered)) | herbicidal effect on M: velvetleaf (velvetleaf [21]; [27]): 5 (Herbicidal rate of 90% or more (almost completely withered)) | herbicidal effect on N: redroot pigweed (redroot pigweed [22]; [27]): 5 (Herbicidal rate of 90% or more (almost completely withered)) | herbicidal effect on O: lambsquarters (lambsquarters [23]; [27]): 5 (Herbicidal rate of 90% or more (almost completely withered)) | herbicidal effect on P: chickweed (chickweed [24]; [27]): 5 (Herbicidal rate of 90% or more (almost completely withered)) | herbicidal effect on R: persian speedwell (persian speedwell [25]; [27]): 5 (Herbicidal rate of 90% or more (almost completely withered))
